Laboratory results: ChEMBL document CHEMBL1201862, “PubChem BioAssay data set” (2004)
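Cultured in 96-well plates, cells were exposed to test compound for 48 hours across five concentrations. Abbreviation: GI50, concentration required for 50% inhibition of growth.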 Activity calls are given as the source filed them. Rule as the data show it: active = GI50 up to about 1.1 µM and inactive = higher.

Legend:
Test in all cases: inhibition of tumour cell growth, NCI panel, 48 h
[1] = system: 786-0
[2] = system: SN12C
[3] = system: HCC 2998
[4] = system: ACHN
[5] = system: U-251
[6] = system: OVCAR-4
[7] = system: HCT-116
[8] = system: CAKI-1
[9] = system: SR
[10] = system: DMS-273
[11] = system: HOP-18
[12] = system: SNB-78
[13] = system: UO-31
[14] = system: NCI-H522
[15] = system: SF-539
[16] = system: RXF 393
[17] = system: SK-OV-3
[18] = system: SK-MEL-5
[19] = system: SW-620
[20] = system: HCT-15
[21] = system: A498
[22] = system: OVCAR-5
[23] = system: SNB-19
[24] = system: NCI-H460
[25] = system: CCRF-CEM
[26] = system: SF-295
[27] = system: HL-60
[28] = system: K562
[29] = system: XF498
[30] = system: OVCAR-8
[31] = system: EKVX
[32] = system: HT-29
[33] = system: UACC-257
[34] = system: IGROV-1
[35] = system: RPMI-8226
[36] = system: DLD-1
[37] = system: UACC-62
[38] = system: SNB-75
[39] = system: M19-MEL
[40] = system: Malme-3M
[41] = system: SK-MEL-2
[42] = system: DMS-114
[43] = system: COLO 205
[44] = system: HOP-62
[45] = system: SK-MEL-28
[46] = system: HOP-92
[47] = system: M14
[48] = system: KM-20L2
[49] = system: KM12
[50] = system: SF-268
[51] = system: NCI-H23
[52] = system: TK-10
[53] = system: LXFL 529
[54] = system: A549
[55] = system: MOLT-4
[56] = system: LOX IMVI
[57] = system: OVCAR-3
[58] = system: NCI-H226
[59] = system: MCF7
[60] = system: MDA-MB-435
[61] = system: T47D
[62] = system: PC-3
[63] = system: BT-549
[64] = system: Hs-578T
[65] = system: MDA-MB-231
[66] = system: MDA-N
[67] = system: DU-145
[68] = system: NCI/ADR-RES

CCC1=C(C(C)=O)[C@@H]2CCCCC[C@@H](C(=O)OC)C2C1=O (stereo not given in full)
GI50 [1]: > 100 µM (inactive) | GI50 [2]: > 100 µM (inactive) | GI50 [3]: > 100 µM (inactive) | GI50 [4]: > 100 µM (inactive) | GI50 [5]: > 100 µM (inactive) | GI50 [6]: > 100 µM (inactive) | GI50 [7]: > 100 µM (inactive) | GI50 [8]: > 100 µM (inactive) | GI50 [9]: > 100 µM (inactive) | GI50 [10]: > 100 µM (inactive) | GI50 [11]: 57.9 µM (inactive) | GI50 [12]: > 100 µM (inactive) | GI50 [13]: > 100 µM (inactive) | GI50 [14]: > 100 µM (inactive) | GI50 [15]: > 100 µM (inactive) | GI50 [16]: > 100 µM (inactive) | GI50 [17]: > 100 µM (inactive) | GI50 [18]: > 100 µM (inactive) | GI50 [19]: > 100 µM (inactive) | GI50 [20]: > 100 µM | GI50 [21]: > 100 µM (inactive) | GI50 [22]: > 100 µM (inactive) | GI50 [23]: > 100 µM (inactive) | GI50 [24]: > 100 µM (inactive) | GI50 [25]: > 100 µM (inactive) | GI50 [26]: > 100 µM (inactive) | GI50 [27]: > 100 µM (inactive) | GI50 [28]: > 100 µM (inactive) | GI50 [29]: > 100 µM (inactive) | GI50 [30]: > 100 µM (inactive) | GI50 [31]: > 100 µM (inactive) | GI50 [32]: > 100 µM (inactive) | GI50 [33]: > 100 µM (inactive) | GI50 [34]: > 100 µM (inactive) | GI50 [35]: > 100 µM (inactive) | GI50 [36]: > 100 µM (inactive) | GI50 [37]: > 100 µM (inactive) | GI50 [38]: > 100 µM (inactive) | GI50 [39]: > 100 µM (inactive) | GI50 [40]: > 100 µM (inactive) | GI50 [41]: > 100 µM (inactive) | GI50 [42]: > 100 µM (inactive) | GI50 [43]: > 100 µM (inactive) | GI50 [44]: > 100 µM (inactive) | GI50 [45]: > 100 µM (inactive) | GI50 [46]: > 100 µM (inactive) | GI50 [47]: > 100 µM (inactive) | GI50 [48]: > 100 µM (inactive) | GI50 [49]: > 100 µM (inactive) | GI50 [50]: > 100 µM (inactive) | GI50 [51]: > 100 µM (inactive) | GI50 [52]: > 100 µM (inactive) | GI50 [53]: > 100 µM (inactive) | GI50 [54]: > 100 µM (inactive) | GI50 [55]: > 100 µM (inactive)

COc1ccc(/C=C\c2cc(OC)c3c(c2)OCO3)c(O)c1O
GI50 [1]: 3.26 µM (inactive) | GI50 [2]: 15 µM (inactive) | GI50 [3]: 21.5 µM (inactive) | GI50 [4]: 11.2 µM (inactive) | GI50 [5]: 6.05 µM (inactive) | GI50 [6]: 4.52 µM (inactive) | GI50 [7]: 6.95 µM (inactive) | GI50 [8]: 2.79 µM (inactive) | GI50 [9]: 3.78 µM (inactive) | GI50 [10]: 20 µM (inactive) | GI50 [11]: 20.6 µM (inactive) | GI50 [12]: 3.94 µM (inactive) | GI50 [13]: 5.87 µM (inactive) | GI50 [14]: 1.7 µM (inactive) | GI50 [15]: 2.08 µM (inactive) | GI50 [16]: 3.94 µM (inactive) | GI50 [17]: 18.6 µM (inactive) | GI50 [18]: 2.3 µM (inactive) | GI50 [19]: 8.3 µM (inactive) | GI50 [20]: 11 µM | GI50 [21]: 8.3 µM (inactive) | GI50 [22]: 26.7 µM (inactive) | GI50 [56]: 4.53 µM (inactive) | GI50 [23]: 4.74 µM (inactive) | GI50 [24]: 5.37 µM (inactive) | GI50 [25]: 2.98 µM (inactive) | GI50 [26]: 8.3 µM (inactive) | GI50 [27]: 2.8 µM (inactive) | GI50 [28]: 4.14 µM (inactive) | GI50 [29]: 11.1 µM (inactive) | GI50 [30]: 5.53 µM (inactive) | GI50 [31]: 11.7 µM (inactive) | GI50 [32]: 20.7 µM (inactive) | GI50 [57]: 4.78 µM (inactive) | GI50 [33]: 14.1 µM (inactive) | GI50 [34]: 4.71 µM (inactive) | GI50 [35]: 2.56 µM (inactive) | GI50 [36]: 6.28 µM (inactive) | GI50 [37]: 3.33 µM (inactive) | GI50 [38]: 0.0256 µM (active) | GI50 [39]: 6.19 µM (inactive) | GI50 [40]: 13.4 µM (inactive) | GI50 [41]: 8.53 µM (inactive) | GI50 [42]: 2.88 µM (inactive) | GI50 [43]: 21.2 µM (inactive) | GI50 [44]: 7.59 µM (inactive) | GI50 [45]: 5.65 µM (inactive) | GI50 [46]: 5.55 µM (inactive) | GI50 [47]: 3.56 µM (inactive) | GI50 [48]: 23.2 µM (inactive) | GI50 [49]: 5.62 µM (inactive) | GI50 [58]: 16.1 µM (inactive) | GI50 [50]: 4.47 µM (inactive) | GI50 [51]: 4.98 µM (inactive) | GI50 [52]: 24.9 µM (inactive) | GI50 [53]: 2.07 µM (inactive) | GI50 [54]: 9.04 µM (inactive) | GI50 [55]: 6.35 µM (inactive)

CCCc1cc(-c2ccc(-c3cc(CCC)c(C=O)[nH]3)s2)[nH]c1C=O
GI50 [1]: 14.4 µM (inactive) | GI50 [2]: > 69.2 µM (inactive) | GI50 [3]: 5.56 µM (inactive) | GI50 [4]: > 26.7 µM (inactive) | GI50 [5]: 61.1 µM (inactive) | GI50 [6]: 47.4 µM (inactive) | GI50 [7]: 21.8 µM (inactive) | GI50 [8]: > 100 µM (inactive) | GI50 [59]: 64.3 µM (inactive) | GI50 [9]: 2.14 µM (inactive) | GI50 [10]: 86.1 µM (inactive) | GI50 [11]: 53 µM (inactive) | GI50 [12]: > 100 µM (inactive) | GI50 [13]: 22.6 µM (inactive) | GI50 [14]: 5.45 µM (inactive) | GI50 [15]: > 100 µM (inactive) | GI50 [16]: 30.1 µM (inactive) | GI50 [17]: > 56.9 µM (inactive) | GI50 [18]: 29.4 µM (inactive) | GI50 [19]: > 55.8 µM (inactive) | GI50 [20]: 8.61 µM | GI50 [60]: 15.5 µM (inactive) | GI50 [21]: > 69.5 µM (inactive) | GI50 [22]: 15.1 µM (inactive) | GI50 [56]: 5.89 µM (inactive) | GI50 [23]: > 100 µM (inactive) | GI50 [61]: 6.05 µM (inactive) | GI50 [62]: 26.5 µM (inactive) | GI50 [24]: 5.2 µM (inactive) | GI50 [25]: 2.44 µM (inactive) | GI50 [26]: 11.9 µM (inactive) | GI50 [27]: 4.3 µM (inactive) | GI50 [28]: 5.48 µM (inactive) | GI50 [29]: > 100 µM (inactive) | GI50 [30]: > 49.1 µM (inactive) | GI50 [63]: 25.9 µM (inactive) | GI50 [31]: > 100 µM (inactive) | GI50 [64]: 41.2 µM (inactive) | GI50 [32]: 2.18 µM (inactive) | GI50 [57]: 12.4 µM (inactive) | GI50 [33]: > 100 µM (inactive) | GI50 [34]: > 100 µM (inactive) | GI50 [35]: > 100 µM (inactive) | GI50 [36]: 44.5 µM (inactive) | GI50 [37]: > 32.6 µM (inactive) | GI50 [38]: > 100 µM (inactive) | GI50 [65]: > 100 µM (inactive) | GI50 [39]: 4.53 µM (inactive) | GI50 [66]: 4.34 µM (inactive) | GI50 [40]: 21.2 µM (inactive) | GI50 [41]: 22 µM (inactive) | GI50 [42]: 8.77 µM (inactive) | GI50 [43]: 4.83 µM (inactive) | GI50 [44]: > 100 µM (inactive) | GI50 [45]: 63 µM (inactive) | GI50 [46]: 27.5 µM (inactive) | GI50 [47]: 7.08 µM (inactive) | GI50 [49]: > 27.9 µM (inactive) | GI50 [58]: > 100 µM (inactive) | GI50 [67]: > 100 µM (inactive) | GI50 [50]: > 84.7 µM (inactive) | GI50 [51]: > 37.1 µM (inactive) | GI50 [52]: > 100 µM (inactive) | GI50 [53]: 76.4 µM (inactive) | GI50 [54]: 4.42 µM (inactive) | GI50 [55]: 2.9 µM (inactive) | GI50 [68]: 18.4 µM (inactive)
